PubChem BioAssay AID216 (DTP/NCI, 2004)
Where “and” joins values, the source holds several entries; their conditions need not be identical. Equal values may be shown once. Inconclusive results and toxic doses are left out.

System: BDF1 mice, P288 leukemia ip, survival T/C
Test: NCI In Vivo Anticancer Drug Screen. Data for tumor model P288 Lymphocytic Leukemia (intraperitoneal) in B6D2F1 (BDF1) mice
Conditions: endpoint: survival time, mean or median, higher = longer survival
Protocol: The antitumor activity of compounds was measured in mice bearing transplantable tumors. Survival or tumor size were measured and the results are expressed as the measurement made in the treated group (T) divided by the measurement made in the vehicle treated control group (C). The tumor model used in this assay is P288 Lymphocytic Leukemia (intraperitoneal) in B6D2F1 (BDF1) mice

[1] = dose: 7.5 mg/kg/injection, schedule: Q01DX Z (ip), vehicle: carboxymethylcellulose (CMC)
[2] = dose: 15.0 mg/kg/injection, schedule: Q01DX Z (ip), vehicle: carboxymethylcellulose (CMC)
[3] = dose: 5.0 mg/kg/injection, schedule: Q01DX010 (ip), vehicle: saline
[4] = dose: 10.0 mg/kg/injection, schedule: Q01DX010 (ip), vehicle: saline
[5] = dose: 20.0 mg/kg/injection, schedule: Q01DX010 (ip), vehicle: saline
[6] = dose: 25.0 mg/kg/injection, schedule: Q01DX Z (ip), vehicle: carboxymethylcellulose (CMC)
[7] = dose: 40.0 mg/kg/injection, schedule: Q01DX010 (ip), vehicle: saline
[8] = dose: 80.0 mg/kg/injection, schedule: Q01DX010 (ip), vehicle: saline
[9] = dose: 100.0 mg/kg/injection, schedule: Q01DX Z (ip), vehicle: carboxymethylcellulose (CMC)
[10] = dose: 200.0 mg/kg/injection, schedule: Q01DX Z (ip), vehicle: carboxymethylcellulose (CMC)
[11] = dose: 25.0 mg/kg/injection, schedule: Q01DX010 (ip), vehicle: saline
[12] = dose: 50.0 mg/kg/injection, schedule: Q01DX010 (ip), vehicle: saline
[13] = dose: 100.0 mg/kg/injection, schedule: Q01DX010 (ip), vehicle: saline
[14] = dose: 200.0 mg/kg/injection, schedule: Q01DX010 (ip), vehicle: saline
[15] = dose: 3.75 mg/kg/injection, schedule: Q01DX Z (ip), vehicle: carboxymethylcellulose (CMC)

## O[C@H](CN1CC1)[C@@H](O)CN1CC1
dose: 8.0 micrograms/kg/injection, schedule: Q01DX Z (ip), vehicle: carboxymethylcellulose (CMC)
  T/C: 113 % of control
dose: 16.0 micrograms/kg/injection, schedule: Q01DX Z (ip), vehicle: carboxymethylcellulose (CMC)
  T/C: 112 % of control
dose: 31.0 micrograms/kg/injection, schedule: Q01DX Z (ip), vehicle: carboxymethylcellulose (CMC)
  T/C: 118 % of control
dose: 31.3 micrograms/kg/injection, schedule: Q01DX010 (ip), vehicle: saline
  T/C: 100 % of control
dose: 62.5 micrograms/kg/injection, schedule: Q01DX010 (ip), vehicle: saline
  T/C: 106 % of control
dose: 125.0 micrograms/kg/injection, schedule: Q01DX010 (ip), vehicle: saline
  T/C: 112 % of control
dose: 250.0 micrograms/kg/injection, schedule: Q01DX010 (ip), vehicle: saline
  T/C: 150 % of control
dose: 250.0 micrograms/kg/injection, schedule: Q01DX Z (ip), vehicle: carboxymethylcellulose (CMC)
  T/C: 170 % of control
dose: 500.0 micrograms/kg/injection, schedule: Q01DX Z (ip), vehicle: carboxymethylcellulose (CMC)
  T/C: 172 % of control and 200 % of control

## NC(=O)N(CCCl)N=O
dose: 0.5 mg/kg/injection, schedule: Q01DX010 (ip), vehicle: saline
  T/C: 205 % of control
dose: 1.0 mg/kg/injection, schedule: Q01DX010 (ip), vehicle: saline
  T/C: 222 % of control
dose: 1.0 mg/kg/injection, schedule: Q01DX Z (ip), vehicle: carboxymethylcellulose (CMC)
  T/C: 105 % of control
dose: 2.0 mg/kg/injection, schedule: Q01DX010 (ip), vehicle: saline
  T/C: 166 % of control
dose: 2.0 mg/kg/injection, schedule: Q01DX Z (ip), vehicle: carboxymethylcellulose (CMC)
  T/C: 98 % of control
dose: 4.0 mg/kg/injection, schedule: Q01DX Z (ip), vehicle: carboxymethylcellulose (CMC)
  T/C: 104 % of control
dose: 8.0 mg/kg/injection, schedule: Q01DX Z (ip), vehicle: carboxymethylcellulose (CMC)
  T/C: 152 % of control and 210 % of control

## CCCCCCCCCCCCNCCCCCCCCCCCC
[1]
  T/C: 108 % of control
[2]
  T/C: 106 % of control
dose: 30.0 mg/kg/injection, schedule: Q01DX Z (ip), vehicle: carboxymethylcellulose (CMC)
  T/C: 110 % of control
dose: 60.0 mg/kg/injection, schedule: Q01DX Z (ip), vehicle: carboxymethylcellulose (CMC)
  T/C: 116 % of control

## N[C@@H](Cc1ccc(N(CCCl)CCCl)cc1)C(=O)O
dose: 0.62 mg/kg/injection, schedule: Q01DX Z (ip), vehicle: saline
  T/C: 151 % of control
dose: 1.25 mg/kg/injection, schedule: Q01DX Z (ip), vehicle: saline
  T/C: 181 % of control and 196 % of control
dose: 2.5 mg/kg/injection, schedule: Q01DX Z (ip), vehicle: saline
  T/C: 172 % of control
dose: 5.0 mg/kg/injection, schedule: Q01DX Z (ip), vehicle: saline
  T/C: 207 % of control
dose: 10.0 mg/kg/injection, schedule: Q01DX Z (ip), vehicle: saline
  T/C: 108 % of control and 113 % of control

## O=c1[nH]c(=O)n(C2CC(O)C(CO)O2)cc1F (centres undefined)
[3]
  T/C: 106 % of control
[4]
  T/C: 109 % of control and 100 % of control
[5]
  T/C: 112 % of control and 100 % of control
[6]
  T/C: 111 % of control
[7]
  T/C: 113 % of control
[8]
  T/C: 118 % of control
[9]
  T/C: 156 % of control and 163 % of control
[10]
  T/C: 111 % of control and 124 % of control
dose: 400.0 mg/kg/injection, schedule: Q01DX Z (ip), vehicle: carboxymethylcellulose (CMC)
  T/C: 108 % of control
dose: 800.0 mg/kg/injection, schedule: Q01DX Z (ip), vehicle: carboxymethylcellulose (CMC)
  T/C: 86 % of control

## O=[n+]1c2c(n([O-])c3ccccc31)-c1cccc3cccc-2c13
[11]
  T/C: 88 % of control
[12]
  T/C: 94 % of control and 100 % of control
[13]
  T/C: 100 % of control
[14]
  T/C: 88 % of control and 100 % of control

## CN(C)/N=N/c1nc[nH]c1C(N)=O
[11]
  T/C: 100 % of control
[12]
  T/C: 88 % of control
[13]
  T/C: 94 % of control and 100 % of control
[14]
  T/C: 100 % of control

## CCCCn1cnc2c(=S)nc[nH]c21
dose: 16.0 mg/kg/injection, schedule: Q01DX010 (ip), vehicle: saline
  T/C: 88 % of control and 94 % of control
[6]
  T/C: 108 % of control
dose: 32.0 mg/kg/injection, schedule: Q01DX010 (ip), vehicle: saline
  T/C: 88 % of control and 100 % of control
dose: 50.0 mg/kg/injection, schedule: Q01DX Z (ip), vehicle: carboxymethylcellulose (CMC)
  T/C: 102 % of control
dose: 64.0 mg/kg/injection, schedule: Q01DX010 (ip), vehicle: saline
  T/C: 88 % of control and 100 % of control
[9]
  T/C: 106 % of control and 113 % of control
dose: 128.0 mg/kg/injection, schedule: Q01DX010 (ip), vehicle: saline
  T/C: 100 % of control
[10]
  T/C: 100 % of control

## [I][Hg][CH2]C1COC([CH2][Hg][I])CO1 (centres undefined)
dose: 0.95 mg/kg/injection, schedule: Q01DX Z (ip), vehicle: carboxymethylcellulose (CMC)
  T/C: 97 % of control
dose: 1.9 mg/kg/injection, schedule: Q01DX Z (ip), vehicle: carboxymethylcellulose (CMC)
  T/C: 94 % of control
[15]
  T/C: 90 % of control
dose: 6.25 mg/kg/injection, schedule: Q01DX010 (ip), vehicle: saline
  T/C: 100 % of control
dose: 12.5 mg/kg/injection, schedule: Q01DX010 (ip), vehicle: saline
  T/C: 100 % of control
[2]
  T/C: 94 % of control
[11]
  T/C: 100 % of control
[12]
  T/C: 88 % of control

## Cc1cc(N(CCCl)CCCl)ccc1N=Nc1ccccc1C(=O)O
dose: 0.45 mg/kg/injection, schedule: Q01DX Z (ip), vehicle: carboxymethylcellulose (CMC)
  T/C: 108 % of control
dose: 0.9 mg/kg/injection, schedule: Q01DX Z (ip), vehicle: carboxymethylcellulose (CMC)
  T/C: 105 % of control
dose: 1.8 mg/kg/injection, schedule: Q01DX Z (ip), vehicle: carboxymethylcellulose (CMC)
  T/C: 104 % of control
[15]
  T/C: 101 % of control
[3]
  T/C: 88 % of control and 90 % of control
[1]
  T/C: 108 % of control
[4]
  T/C: 90 % of control and 94 % of control
[5]
  T/C: 105 % of control and 90 % of control
[7]
  T/C: 94 % of control

## C[N+](C)(C)c1ncnc2nc[nH]c12
dose: 0.4 mg/kg/injection, schedule: Q01DX Z (ip), vehicle: carboxymethylcellulose (CMC)
  T/C: 98 % of control
dose: 0.8 mg/kg/injection, schedule: Q01DX Z (ip), vehicle: carboxymethylcellulose (CMC)
  T/C: 94 % of control
dose: 1.6 mg/kg/injection, schedule: Q01DX Z (ip), vehicle: carboxymethylcellulose (CMC)
  T/C: 98 % of control
dose: 3.1 mg/kg/injection, schedule: Q01DX Z (ip), vehicle: carboxymethylcellulose (CMC)
  T/C: 98 % of control
dose: 15.0 mg/kg/injection, schedule: Q01DX010 (ip), vehicle: saline
  T/C: 88 % of control and 100 % of control
dose: 30.0 mg/kg/injection, schedule: Q01DX010 (ip), vehicle: saline
  T/C: 100 % of control
dose: 60.0 mg/kg/injection, schedule: Q01DX010 (ip), vehicle: saline
  T/C: 100 % of control
dose: 120.0 mg/kg/injection, schedule: Q01DX010 (ip), vehicle: saline
  T/C: 100 % of control

## O=CCC(O)C(O)C(O)CO (centres undefined)
dose: 16.0 mg/kg/injection, schedule: Q01DX Z (ip), vehicle: carboxymethylcellulose (CMC)
  T/C: 120 % of control
dose: 62.5 mg/kg/injection, schedule: Q01DX Z (ip), vehicle: carboxymethylcellulose (CMC)
  T/C: 113 % of control
dose: 125.0 mg/kg/injection, schedule: Q01DX Z (ip), vehicle: carboxymethylcellulose (CMC)
  T/C: 120 % of control
dose: 250.0 mg/kg/injection, schedule: Q01DX010 (ip), vehicle: saline
  T/C: 90 % of control and 100 % of control
dose: 500.0 mg/kg/injection, schedule: Q01DX010 (ip), vehicle: saline
  T/C: 100 % of control

## CCN(CC)CCNc1ccc(C)c2sc3ccccc3c(=O)c12
[11]
  T/C: 110 % of control
[12]
  T/C: 205 % of control
dose: 51.0 mg/kg/injection, schedule: Q01DX010 (ip), vehicle: saline
  T/C: 155 % of control
[13]
  T/C: 180 % of control

## Nc1ncnc2c1ncn2C1OC(COCc2ccccc2)C(OCc2ccccc2)C1OCc1ccccc1 (centres undefined)
[4]
  T/C: 94 % of control and 100 % of control
[5]
  T/C: 111 % of control and 94 % of control
[7]
  T/C: 105 % of control and 100 % of control
[8]
  T/C: 94 % of control
